# In patent publication US8987284B2, “Phosphorus containing quinazoline compounds and methods of use” (Newgen Therapeutics, Inc., priority 2009, dated 2015):
# Experiments:
# [1] = target: T1, EGFR kinase (Homo sapiens, UniProt P00533); assay: Kinase assay for EGFR (TR-FRET LanthaScreen); assay type: biochemical; settings: % inhibition at 100 nM or IC50 (nM)
# T1 construct: purchased Invitrogen PV3872
# Description: The extent to which the compounds of the present invention modulate EGFR kinase activity can be determined using time-resolved Fret (TR-FRET) assay (LanthaScreen® kinase activity assay, from Invitrogen). The assay employs EGFR kinase (PV3872, Invitrogen), Tb-Py20 antibody (PV3552, Invitrogen) and fluorescein-poly GT (PV3610, In vitrogen)
# The assay is performed in a Black 384-well plate (available from Corning). EGFR kinase (is diluted in TR-FRET Dilution Buffer (PV3189, InVitrogen) at concentration of 0.4 ug/ml as stock solution, and then 2-fold serial diluted. Addition of 1 mM ATP initiated the reaction, and the reaction is incubated for 1 h reaction at room temperature. 10 μL of the Tb-antibody (from Invitrogen)+EDTA (from Invitrogen) solution prepared was added to each well of the assay plate and mix briefly, and incubated for 30 min. The signal is monitored by using M5 microplate reader (Ex=332 nm, Em=488 nm and 518 nm). Each compound is tested in duplicate wells. EGFR without compound is used as control. Staurosporine (available from Sigma) is used as positive control compound. Inhibition was calculated as percentage of the EGFR activity (without compound)
# [2] = test system: BT474 cells; assay: Cell proliferation inhibition assay for BT474 (CCK-8); assay type: cell-based; settings: Homo sapiens, BT-474; 72 h, 8 points
# Description: Human breast cancer BT474 cells was cultured in low glucose DMEM (Life Technologies 12320-032) containing 10% fetal bovine serum (FBS) at 37° C. in a humidified 10% CO2, 90% air incubator. Cells were harvested using trypsin/EDTA, counted using a haemocytometer, and plated 10000 cell/well in a 96-well clear tissue culture plate. The cells were incubated for 24 h at 37° C. to allow adherence. A serials of concentrations of each compound (ranging from 30 uM to […], 5-fold dilution) in 96-well plate, and incubated for 72 h. Each concentration was tested in triplicate wells. During the cell proliferation assay, BT474 cells were cultured in low-glucose DMEM containing 5% FBS, 50 ug/ml gentamicin, and 0.3% v/v DMSO. The culture medium was removed via aspiration, and the cell viability was detected by using CCK-8 cell proliferation kit.
# T1 sequence (P00533 25-1210): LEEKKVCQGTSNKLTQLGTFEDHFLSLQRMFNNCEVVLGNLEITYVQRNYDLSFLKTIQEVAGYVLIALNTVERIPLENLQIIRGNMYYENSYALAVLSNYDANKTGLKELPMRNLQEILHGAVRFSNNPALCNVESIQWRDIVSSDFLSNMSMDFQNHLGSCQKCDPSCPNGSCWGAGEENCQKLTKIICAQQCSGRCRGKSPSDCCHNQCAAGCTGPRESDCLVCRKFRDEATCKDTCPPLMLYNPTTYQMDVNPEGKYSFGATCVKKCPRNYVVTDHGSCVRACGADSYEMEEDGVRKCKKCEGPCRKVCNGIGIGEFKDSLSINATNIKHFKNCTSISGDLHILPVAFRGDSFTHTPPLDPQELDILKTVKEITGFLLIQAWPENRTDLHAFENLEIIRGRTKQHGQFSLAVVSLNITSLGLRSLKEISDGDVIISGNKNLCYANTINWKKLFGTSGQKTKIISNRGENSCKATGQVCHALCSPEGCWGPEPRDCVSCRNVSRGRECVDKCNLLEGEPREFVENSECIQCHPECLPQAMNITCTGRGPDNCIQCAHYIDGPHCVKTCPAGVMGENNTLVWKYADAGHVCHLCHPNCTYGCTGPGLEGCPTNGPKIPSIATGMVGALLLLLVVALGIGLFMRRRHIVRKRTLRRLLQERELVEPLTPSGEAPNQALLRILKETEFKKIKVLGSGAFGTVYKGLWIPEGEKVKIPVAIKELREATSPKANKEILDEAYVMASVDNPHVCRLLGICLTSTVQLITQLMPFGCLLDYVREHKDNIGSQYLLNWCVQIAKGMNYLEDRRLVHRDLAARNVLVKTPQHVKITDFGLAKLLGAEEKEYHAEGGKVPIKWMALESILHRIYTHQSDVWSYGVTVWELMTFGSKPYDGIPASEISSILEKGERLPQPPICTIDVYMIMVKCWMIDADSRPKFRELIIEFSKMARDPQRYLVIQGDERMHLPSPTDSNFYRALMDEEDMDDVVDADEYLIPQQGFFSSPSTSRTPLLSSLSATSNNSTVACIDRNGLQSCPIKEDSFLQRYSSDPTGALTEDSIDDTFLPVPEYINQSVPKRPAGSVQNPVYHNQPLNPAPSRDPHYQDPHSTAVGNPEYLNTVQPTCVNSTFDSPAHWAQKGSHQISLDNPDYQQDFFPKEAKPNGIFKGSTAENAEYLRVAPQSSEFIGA
SMILES,EGFR inhibition inhibit % at 100 nM or IC50 (nM) [1],IC50 [2]
"CP1(=O)CCN(Cc2ccc(-c3ccc4ncnc(Nc5ccc(OCc6cccc(F)c6)c(Cl)c5)c4c3)o2)CC1 [Example 1, N-(3-chloro-4-(3-fluorobenzyloxy)phenyl)-6-(5-((4-methyl-1,4-azaphosphino-1-yl)methyl)furan-2-yl)quinazolin-4-amine]","++ (>50% inhibition at 100 nM, or IC50 <100 nM for EGFR or ErbB2 kinases)",< 100 nM
"CP(C)(=O)CCNCc1ccc(-c2ccc3ncnc(Nc4ccc(OCc5cccc(F)c5)c(Cl)c4)c3c2)o1 [Example 2, 6-(5-((2-(dimethylphosphino)ethylaminoyl)methyl)furan-2-yl)-N-(4-(3-fluorobenzyloxy)-3-chlorophenyl)quinazolin-4-amine]","++ (>50% inhibition at 100 nM, or IC50 <100 nM for EGFR or ErbB2 kinases)",< 100 nM
"CP(C)(=O)CNCc1ccc(-c2ccc3ncnc(Nc4ccc(OCc5cccc(F)c5)c(Cl)c4)c3c2)o1 [Example 3, 6-(5-(((dimethylphosphinoyl)methylamino)methyl)furan-2-yl)-N-(4-(3-fluorobenzyloxy)-3-chlorophenyl)quinazolin-4-amine]","++ (>50% inhibition at 100 nM, or IC50 <100 nM for EGFR or ErbB2 kinases)",100 to 1000 nM
"CP1(=O)CCN(CCCc2ccc3ncnc(Nc4ccc(OCc5cccc(F)c5)c(Cl)c4)c3c2)CC1 [Example 5, N-(3-chloro-4-(3-fluorobenzyloxy)phenyl)-6-(3-(4-methyl-1,4-azaphosphino-1-yl)propyl)quinazolin-4-amine]","++ (>50% inhibition at 100 nM, or IC50 <100 nM for EGFR or ErbB2 kinases)",
"COP(=O)(CCNCc1ccc(-c2ccc3ncnc(Nc4ccc(OCc5cccc(F)c5)c(Cl)c4)c3c2)o1)OC [Example 6, dimethyl 2-((5-(4-(3-chloro-4-(3-fluorobenzyloxy)phenylamino)quinazolin-6-yl)furan-2-yl)methylamino)ethylphosphonate]","++ (>50% inhibition at 100 nM, or IC50 <100 nM for EGFR or ErbB2 kinases)",
"CC1(C)COP(=O)(CCNCc2ccc(-c3ccc4ncnc(Nc5ccc(OCc6cccc(F)c6)c(Cl)c5)c4c3)o2)OC1 [Example 7, N-(3-chloro-4-(3-fluorobenzyloxy)phenyl)-6-(5-((2-(5,5-dimethyl-1,3,2-dioxaphosphino-2-yl)ethylamino)methyl)furan-2-yl)quinazolin-4-amine]","++ (>50% inhibition at 100 nM, or IC50 <100 nM for EGFR or ErbB2 kinases)",
"CP1(=O)CCN(Cc2ccc(-c3ccc4ncnc(Nc5ccc(OCc6ccccn6)c(Cl)c5)c4c3)o2)CC1 [Example 8, N-(3-chloro-4-(pyridin-2-ylmethoxy)phenyl)-6-(5-((4-methyl-1,4-azaphosphino-1-yl)methyl)furan-2-yl)quinazolin-4-amine]","++ (>50% inhibition at 100 nM, or IC50 <100 nM for EGFR or ErbB2 kinases)",< 100 nM
"Cc1cccc(COc2ccc(Nc3ncnc4ccc(-c5ccc(CN6CCP(C)(=O)CC6)o5)cc34)cc2Cl)n1 [Example 9, N-(3-chloro-4-((6-methylpyridin-2-yl)methoxy)phenyl)-6-(5-((4-methyl-1,4-azaphosphino-1-yl)methyl)furan-2-yl)quinazolin-4-amine]","+ (between 20% to 50% inhibition at 100 nM, or IC50 between 100 and 1000 nM)",100 to 1000 nM
"CP(C)(=O)CCNCC#Cc1ccc2ncnc(Nc3ccc(OCc4cccc(F)c4)c(Cl)c3)c2c1 [Example 10, 6-(3-(2-(dimethylphosphinoyl)ethylamino)prop-1-ynyl)-N-(4-(3-fluorobenzyloxy)-3-chlorophenyl)quinazolin-4-amine]","++ (>50% inhibition at 100 nM, or IC50 <100 nM for EGFR or ErbB2 kinases)",
"CP1(=O)CCN(C/C=C/c2ccc3ncnc(Nc4ccc(OCc5cccc(F)c5)c(Cl)c4)c3c2)CC1 [Example 11, N-(4-(3-fluorobenzyloxy)-3-chlorophenyl)-6-((E)-3-(4-methyl-1,4-azaphosphino-1-yl)prop-1-enyl)quinazolin-4-amine]","++ (>50% inhibition at 100 nM, or IC50 <100 nM for EGFR or ErbB2 kinases)",
Cc1ccc(Oc2ccc(Nc3ncnc4ccc(-c5ccc(CN6CCP(C)(=O)CC6)o5)cc34)cc2C)cn1 [Example 12],"++ (>50% inhibition at 100 nM, or IC50 <100 nM for EGFR or ErbB2 kinases)",
"CP(C)(=O)CN1CCN(Cc2ccc(-c3ccc4ncnc(Nc5ccc(OCc6cccc(F)c6)c(Cl)c5)c4c3)o2)CC1 [Example 13, N-(4-(3-fluorobenzyloxy)-3-chlorophenyl)-6-(5-((4-((dimethylphosphinoyl)-methyl)piperazin-1-yl)methyl)furan-2-yl)quinazolin-4-amine]","++ (>50% inhibition at 100 nM, or IC50 <100 nM for EGFR or ErbB2 kinases)",100 to 1000 nM
"CP1(=O)CCN(Cc2ccc(-c3ccc4ncnc(Nc5ccc(OCc6cccc(F)c6)c(Br)c5)c4c3)o2)CC1 [Example 14, N-(4-(3-fluorobenzyloxy)-3-bromophenyl)-6-(5-((4-methyl-1,4-azaphosphino-1-yl)methyl)furan-2-yl)quinazolin-4-amine]","++ (>50% inhibition at 100 nM, or IC50 <100 nM for EGFR or ErbB2 kinases)",
"CP1(=O)CCN(Cc2ccc(-c3ccc4ncnc(Nc5ccc(OCc6cccc[n+]6[O-])c(Cl)c5)c4c3)o2)CC1 [Example 15, 2-((2-chloro-4-(6-(5-((4-methyl-1,4-azaphosphino-1-yl)methyl)furan-2-yl)quinazolin-4-ylamino)phenoxy)methyl)pyridine 1-oxide]","++ (>50% inhibition at 100 nM, or IC50 <100 nM for EGFR or ErbB2 kinases)",< 100 nM
"CP1(=O)CCN(Cc2ccc(-c3ccc4ncnc(Nc5ccc6c(cnn6Cc6cccc(F)c6)c5)c4c3)o2)CC1 [Example 16, N-(1-(3-fluorobenzyl)-1H-indazol-5-yl)-6-(5-((4-methyl-1,4-azaphosphino-1-yl)methyl)furan-2-yl)quinazolin-4-amine]","++ (>50% inhibition at 100 nM, or IC50 <100 nM for EGFR or ErbB2 kinases)",
"CCOP1(=O)CCN(Cc2ccc(-c3ccc4ncnc(Nc5ccc(OCc6cccc(F)c6)c(Cl)c5)c4c3)o2)CC1 [Example 17, N-(3-chloro-4-(3-fluorobenzyloxy)phenyl)-6-(5-((4-ethoxy-1,4-azaphosphino-1-yl)methyl)furan-2-yl)quinazolin-4-amine]","++ (>50% inhibition at 100 nM, or IC50 <100 nM for EGFR or ErbB2 kinases)",< 100 nM
"C[C@@H](Nc1ncnc2ccc(-c3ccc(CN4CCP(C)(=O)CC4)o3)cc12)c1ccccc1 [Example 18, (R)-6-(5-((4-methyl-1,4-azaphosphino-1-yl)methyl)furan-2-yl)-N-(1-phenylethyl)quinazolin-4-amine]","++ (>50% inhibition at 100 nM, or IC50 <100 nM for EGFR or ErbB2 kinases)",
"CP1(=O)CCN(Cc2ccc(-c3ccc4ncnc(Nc5cccc(Cl)c5F)c4c3)o2)CC1 [Example 19, N-(3-chloro-2-fluorophenyl)-6-(5-((4-methyl-1,4-azaphosphino-1-yl)methyl)furan-2-yl)quinazolin-4-amine]","++ (>50% inhibition at 100 nM, or IC50 <100 nM for EGFR or ErbB2 kinases)",
"CP1(=O)CCN(Cc2ccc(-c3ccc4ncnc(Nc5ccc(Br)cc5F)c4c3)o2)CC1 [Example 20, N-(4-Bromo-2-fluorophenyl)-6-(5-((4-methyl-1,4-azaphosphino-1-yl)methyl)furan-2-yl)quinazolin-4-amine]","+ (between 20% to 50% inhibition at 100 nM, or IC50 between 100 and 1000 nM)",
"CP1(=O)CCN(Cc2ccc(-c3ccc4ncnc(Nc5ccc(Br)c(Cl)c5F)c4c3)o2)CC1 [Example 21, N-(4-Bromo-3-chloro-2-fluorophenyl)-6-(5-((4-methyl-1,4-azaphosphino-1-yl)methyl)furan-2-yl)quinazolin-4-amine]","++ (>50% inhibition at 100 nM, or IC50 <100 nM for EGFR or ErbB2 kinases)",
"CP1(=O)CCN(Cc2ccc(-c3ccc4ncnc(Nc5ccc(OCc6cnccn6)c(Cl)c5)c4c3)o2)CC1 [Example 22, N-(3-chloro-4-(pyrazin-2-ylmethoxy)phenyl)-6-(5-((4-methyl-1,4-azaphosphino-1-yl)methyl)furan-2-yl)quinazolin-4-amine]","++ (>50% inhibition at 100 nM, or IC50 <100 nM for EGFR or ErbB2 kinases)",
